# Data as given in article PMC10066365, “Nemacol is a small molecule inhibitor of C. elegans vesicular acetylcholine transporter with anthelmintic potential” (Nature Communications, 2023).
# Several values for one entry are separate records, joined by “and”; a condition that tells them apart may be missing. Identical values can stand only once.
# Tests used:
# [1] = tested on: Dirofilaria immitis microfilariae; assay: Dirofilaria immitis microfilariae motility (optical flow, ImageXpress/wrmXpress) and CellTox Green viability, second lab
# Procedure: We also conducted Dirofilaria immitis experiments in the lab of M. Zamanian (Univeristy of Wisconsin). For this experiment, shown in Supplementary Fig. 6, Microfilaremic blood was obtained from the NIH/NIAID Filariasis Research Reagent Resource Center (FR3)[70]. Blood was drawn and shipped approximately 24 h before use. Upon arrival, blood was warmed to 37 °C then combined with a 0.85% sodium chloride and 0.2% saponin solution in a 1:11 volumetric ratio and incubated in a 37 °C water bath for 15 min. The hemolyzed solution was passed through a 25 mm 5.0 μm pore size syringe filter. The used filter disks were transferred to petri dishes filled with RPMI 1640 culture media with 1% penicillin/streptomycin (0.1 mg/mL) and incubated at 37 °C for 2 h while microfilariae (mf) separated from the disks. Disks were discarded and mf titered to 5 mf/μL.
# Aliquots of titered mf were incubated on a heating block at 60 °C for 1 h to produce heat killed positive controls. One μL of 100× drug was aliquoted to each well of a 96-well plate; 100 μL of live mf were added to treatment wells and 100 μL of heat killed mf were added to positive control wells (for a total of 500 mf/well). Plates were sealed with a breathable plate cover and maintained at 37 °C and 5% atmospheric CO2. […] Image analysis and the subsequent measurement of optical flow and fluorescence was performed using wrmXpress v1.3.02[71]. […]
# rat VAChT = molecular target: T1, rat VAChT (Rattus norvegicus, UniProt Q62666); assay: [3H]Vesamicol competitive radioligand binding, PC12 cells expressing ratVAChT; settings: for specific binding in % of total binding (corrected by nonspecific binding NB), mean: rVAChT-PC12, 21°C, 1% DMSO
# T1 construct: expressed in transfected cells; host or cells: rat PC12 (PC12 A123.7) cells, stably transfected; shared by Dr. Ali Roghani (Texas Tech University)
# T1 sequence (Q62666 1-530): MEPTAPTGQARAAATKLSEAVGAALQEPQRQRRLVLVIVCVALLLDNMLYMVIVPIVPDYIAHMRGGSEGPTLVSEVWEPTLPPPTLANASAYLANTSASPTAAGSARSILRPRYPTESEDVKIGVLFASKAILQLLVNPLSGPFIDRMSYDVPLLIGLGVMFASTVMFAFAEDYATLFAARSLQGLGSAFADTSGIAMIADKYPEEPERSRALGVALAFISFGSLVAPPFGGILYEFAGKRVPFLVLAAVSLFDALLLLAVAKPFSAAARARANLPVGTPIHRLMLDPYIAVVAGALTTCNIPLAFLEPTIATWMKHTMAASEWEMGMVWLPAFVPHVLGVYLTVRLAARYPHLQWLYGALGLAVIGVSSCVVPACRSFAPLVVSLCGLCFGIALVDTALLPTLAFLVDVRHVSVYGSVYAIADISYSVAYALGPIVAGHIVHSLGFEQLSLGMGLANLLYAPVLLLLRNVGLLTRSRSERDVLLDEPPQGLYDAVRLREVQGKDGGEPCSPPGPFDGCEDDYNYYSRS
# [2] = Motor phenotype time course on 60 μM Nemacol-1, EMB-8 disruption vs wild type; type: in vivo, Caenorhabditis elegans; settings: N2, 60µM, count per bio rep
# C. elegans DA1316 = assay: C. elegans 3-day liquid viability assay, DA1316 avr-14; avr-15; […]; type: in vivo, Caenorhabditis elegans; settings: for total animals normalized to corresponding controls: DA1316
# C. elegans = C. elegans 3-day liquid viability assay, Nemacol-1 x Ivermectin matrix, wild type; settings: for total animals normalized to corresponding controls: N2 wild type; for nemacol-1 x ivermectin matrix dose-response raw data: ivermectin 0 (row head 0), 3 replicate columns
# [3] = Caenorhabditis elegans, read-out: C. elegans viability
smiles,measurement,setting,value
O=[N+]([O-])c1ccc(N2CCN(CC3CCCCC3)CC2)cc1 [Nemacol-1],impact on IVM's ability to paralyze Dirofilaria,[1],no impact
same,optical_flow,[1],64671429 and 95056554 and 124845938 and 124294468
same,"activity ratio, mammalian VAChT Ki to C. elegans in vivo EC50",rat VAChT,0.11
same,Ki,"rat VAChT; Ki, each of two biological replicates",0.875 µM and 0.661 µM
same,"specific binding in % of total binding (corrected by nonspecific binding NB), mean","rat VAChT; competitor 1.00E-04 M, experiment 2019-11-21, 2.20E-09 M 3H-vesamicol, 90 min",2.84%
same,"specific binding in % of total binding (corrected by nonspecific binding NB), mean","rat VAChT; competitor 1.00E-05 M, experiment 2019-10-30, 2.92E-09 M 3H-vesamicol, 120 min",34%
same,"specific binding in % of total binding (corrected by nonspecific binding NB), mean","rat VAChT; competitor 1.00E-05 M, experiment 2019-11-21, 2.20E-09 M 3H-vesamicol, 90 min",10%
same,"specific binding in % of total binding (corrected by nonspecific binding NB), mean","rat VAChT; competitor 1.00E-06 M, experiment 2019-10-30, 2.92E-09 M 3H-vesamicol, 120 min",51%
same,"specific binding in % of total binding (corrected by nonspecific binding NB), mean","rat VAChT; competitor 1.00E-06 M, experiment 2019-11-21, 2.20E-09 M 3H-vesamicol, 90 min",52%
same,"specific binding in % of total binding (corrected by nonspecific binding NB), mean","rat VAChT; competitor 1.00E-07 M, experiment 2019-10-30, 2.92E-09 M 3H-vesamicol, 120 min",86%
same,"specific binding in % of total binding (corrected by nonspecific binding NB), mean","rat VAChT; competitor 1.00E-07 M, experiment 2019-11-21, 2.20E-09 M 3H-vesamicol, 90 min",82%
same,"specific binding in % of total binding (corrected by nonspecific binding NB), mean","rat VAChT; competitor 1.00E-08 M, experiment 2019-10-30, 2.92E-09 M 3H-vesamicol, 120 min",94%
same,"specific binding in % of total binding (corrected by nonspecific binding NB), mean","rat VAChT; competitor 1.00E-08 M, experiment 2019-11-21, 2.20E-09 M 3H-vesamicol, 90 min",90%
same,"specific binding in % of total binding (corrected by nonspecific binding NB), mean","rat VAChT; competitor 1.00E-09 M, experiment 2019-10-30, 2.92E-09 M 3H-vesamicol, 120 min",96%
same,"specific binding in % of total binding (corrected by nonspecific binding NB), mean","rat VAChT; competitor 1.00E-09 M, experiment 2019-11-21, 2.20E-09 M 3H-vesamicol, 90 min",88%
same,"specific binding in % of total binding (corrected by nonspecific binding NB), mean","rat VAChT; competitor 1.00E-10 M, experiment 2019-10-30, 2.92E-09 M 3H-vesamicol, 120 min",95%
same,"specific binding in % of total binding (corrected by nonspecific binding NB), mean","rat VAChT; competitor 1.00E-10 M, experiment 2019-11-21, 2.20E-09 M 3H-vesamicol, 90 min",92%
same,"specific binding in % of total binding (corrected by nonspecific binding NB), mean","rat VAChT; competitor 1.00E-11 M, experiment 2019-10-30, 2.92E-09 M 3H-vesamicol, 120 min",94%
same,rat VAChT Ki fold difference to vesamicol,rat VAChT; fold less affinity than vesamicol,37 fold
same,Ki,rat VAChT; in vitro mammalian VAChT Ki,0.77 µM
same,Ki,"rat VAChT; ratVAChT Ki, [3H]Vesamicol displacement, mean",0.768 µM
same,adult worms P (paralyzed),[2]; 6h,0
same,adult worms P (paralyzed),[2]; 24h,0
same,total animals normalized to corresponding controls,C. elegans DA1316; ivermectin 0 uM + nemacol-1 5.72205e-5,117.10
same,total animals normalized to corresponding controls,C. elegans DA1316; ivermectin 0 uM + nemacol-1 0.0146484,91.26
same,total animals normalized to corresponding controls,C. elegans DA1316; ivermectin 0 uM + nemacol-1 3.75,106.04
same,total animals normalized to corresponding controls,C. elegans DA1316; ivermectin 0 uM + nemacol-1 7.5,111.01
same,total animals normalized to corresponding controls,C. elegans DA1316; ivermectin 0 uM + nemacol-1 15,100.31
same,total animals normalized to corresponding controls,C. elegans DA1316; ivermectin 0 uM + nemacol-1 30,100.23
same,total animals normalized to corresponding controls,C. elegans DA1316; ivermectin 0 uM + nemacol-1 60,99.19
same,total animals normalized to corresponding controls,C. elegans DA1316; ivermectin 0.0009375 uM + nemacol-1 0.000114441,112.95
same,total animals normalized to corresponding controls,C. elegans DA1316; ivermectin 0.0009375 uM + nemacol-1 0.0292969,124.80
same,total animals normalized to corresponding controls,C. elegans DA1316; ivermectin 0.0009375 uM + nemacol-1 3.75,113.26
same,total animals normalized to corresponding controls,C. elegans DA1316; ivermectin 0.0009375 uM + nemacol-1 7.5,122.67
same,total animals normalized to corresponding controls,C. elegans DA1316; ivermectin 0.0009375 uM + nemacol-1 15,99.45
same,total animals normalized to corresponding controls,C. elegans DA1316; ivermectin 0.0009375 uM + nemacol-1 30,96.12
same,total animals normalized to corresponding controls,C. elegans DA1316; ivermectin 0.0009375 uM + nemacol-1 60,95.59
same,total animals normalized to corresponding controls,C. elegans DA1316; ivermectin 0.001875 uM + nemacol-1 0.000228882,117.74
same,total animals normalized to corresponding controls,C. elegans DA1316; ivermectin 0.001875 uM + nemacol-1 0.0585938,95.40
same,total animals normalized to corresponding controls,C. elegans DA1316; ivermectin 0.001875 uM + nemacol-1 3.75,107.81
same,total animals normalized to corresponding controls,C. elegans DA1316; ivermectin 0.001875 uM + nemacol-1 7.5,110.79
same,total animals normalized to corresponding controls,C. elegans DA1316; ivermectin 0.001875 uM + nemacol-1 15,103.40
same,total animals normalized to corresponding controls,C. elegans DA1316; ivermectin 0.001875 uM + nemacol-1 30,87.76
same,total animals normalized to corresponding controls,C. elegans DA1316; ivermectin 0.001875 uM + nemacol-1 60,95.73
same,total animals normalized to corresponding controls,C. elegans DA1316; ivermectin 0.00375 uM + nemacol-1 0.000457764,105.05
same,total animals normalized to corresponding controls,C. elegans DA1316; ivermectin 0.00375 uM + nemacol-1 0.117188,110.64
same,total animals normalized to corresponding controls,C. elegans DA1316; ivermectin 0.00375 uM + nemacol-1 3.75,115.16
same,total animals normalized to corresponding controls,C. elegans DA1316; ivermectin 0.00375 uM + nemacol-1 7.5,104.58
same,total animals normalized to corresponding controls,C. elegans DA1316; ivermectin 0.00375 uM + nemacol-1 15,92.41
same,total animals normalized to corresponding controls,C. elegans DA1316; ivermectin 0.00375 uM + nemacol-1 30,95.26
same,total animals normalized to corresponding controls,C. elegans DA1316; ivermectin 0.00375 uM + nemacol-1 60,95.05
same,total animals normalized to corresponding controls,C. elegans DA1316; ivermectin 0.03 uM + nemacol-1 0.00366211,117.10
same,total animals normalized to corresponding controls,C. elegans DA1316; ivermectin 0.03 uM + nemacol-1 0.9375,95.99
same,total animals normalized to corresponding controls,C. elegans DA1316; ivermectin 0.03 uM + nemacol-1 3.75,106.91
same,total animals normalized to corresponding controls,C. elegans DA1316; ivermectin 0.03 uM + nemacol-1 7.5,93.50
same,total animals normalized to corresponding controls,C. elegans DA1316; ivermectin 0.03 uM + nemacol-1 15,78.16
same,total animals normalized to corresponding controls,C. elegans DA1316; ivermectin 0.03 uM + nemacol-1 30,62.13
same,total animals normalized to corresponding controls,C. elegans DA1316; ivermectin 0.03 uM + nemacol-1 60,54.19
same,total animals normalized to corresponding controls,C. elegans DA1316; ivermectin 0.06 uM + nemacol-1 0.00732422,74.90
same,total animals normalized to corresponding controls,C. elegans DA1316; ivermectin 0.06 uM + nemacol-1 1.875,82.85
same,total animals normalized to corresponding controls,C. elegans DA1316; ivermectin 0.06 uM + nemacol-1 3.75,87.36
same,total animals normalized to corresponding controls,C. elegans DA1316; ivermectin 0.06 uM + nemacol-1 7.5,84.34
same,total animals normalized to corresponding controls,C. elegans DA1316; ivermectin 0.06 uM + nemacol-1 15,45.86
same,total animals normalized to corresponding controls,C. elegans DA1316; ivermectin 0.06 uM + nemacol-1 30,52.87
same,total animals normalized to corresponding controls,C. elegans DA1316; ivermectin 0.06 uM + nemacol-1 60,31.96
same,synergy with Ivermectin in triple mutant compared to wild type,"C. elegans DA1316; avr-14, avr-15, glc-1 triple mutant",0.6 fold
same,fold lowering of Ivermectin's EC50,"C. elegans; 3-day viability, wild type",3 fold
same,viability at 15 µM,C. elegans; [3],97%
same,viability at 30 µM,C. elegans; [3],97%
same,viability at 60 µM,C. elegans; [3],83%
same,global ZIP synergy score,"C. elegans; Ivermectin + Nemacol-1, wild type, threshold of synergy 10",20.0
same,total animals normalized to corresponding controls,"C. elegans; nemacol-1 0.9375, ivermectin 0 uM",1.1
same,total animals normalized to corresponding controls,"C. elegans; nemacol-1 1.875, ivermectin 0 uM",1.1
same,total animals normalized to corresponding controls,"C. elegans; nemacol-1 3.75, ivermectin 0 uM",1.2
same,total animals normalized to corresponding controls,"C. elegans; nemacol-1 7.5, ivermectin 0 uM",1.1
same,total animals normalized to corresponding controls,"C. elegans; nemacol-1 15, ivermectin 0 uM",0.9
same,total animals normalized to corresponding controls,"C. elegans; nemacol-1 30, ivermectin 0 uM",0.9
same,nemacol-1 x ivermectin matrix dose-response raw data,C. elegans; wt (N2) + 15 uM nemacol,100.0 and 76.7 and 84.0
same,nemacol-1 x ivermectin matrix dose-response raw data,C. elegans; wt (N2) + 30 uM nemacol,102.1 and 93.3 and 70.0
same,nemacol-1 x ivermectin matrix dose-response raw data,C. elegans; wt (N2) + 60 uM nemacol,119.1 and 66.7 and 70.0
same,nemacol-1 x ivermectin matrix dose-response raw data,C. elegans; wt (N2) + 3.75 nemacol,102.1 and 150.0 and 114.0
